± gives the expanded uncertainty stated by the source.
Columns and labels:
[1] = refractive index (Na D-line) (dimensionless); settings: 298.15 K; 101.33 kPa; Liquid; Standard Abbe refractometry
[2] = 298.15 K; 101.33 kPa; Liquid
[3] = excess molar enthalpy (molar enthalpy of mixing); xn = mol fraction of the nth substance listed; settings: 298.15 K, 101.33 kPa, Liquid
[4] = xn = mol fraction of the nth substance listed; settings: 298.15 K, 101.33 kPa, Liquid

CCOC=O [ethyl methanoate]
refractive index [1]: 1.358 ± 0.0009
mass density [2]: 914.17 ± 1.6 kg/m3

CCOC(=O)CC [ethyl propanoate]
refractive index [1]: 1.3815 ± 0.0008
mass density [2]: 884.02 ± 0.6 kg/m3

ClCCCCCCCl [1,6-dichlorohexane]
refractive index [1]: 1.4555 ± 0.0008
mass density [2]: 1063.72 ± 1.2 kg/m3

ClCCCCCl [1,4-dichlorobutane]
refractive index [1]: 1.452 ± 0.0008
mass density [2]: 1133.32 ± 0.72 kg/m3

ClCCCCCCCl [1,6-dichlorohexane] + CCCC(=O)OCC
excess molar enthalpy ([3]; x2 = 0.051): -0.000789 ± 0.000382 kcal/mol
excess molar enthalpy ([3]; x2 = 0.1085): -0.0022 ± 0.000406 kcal/mol
excess molar enthalpy ([3]; x2 = 0.1746): -0.00564 ± 0.000454 kcal/mol
excess molar enthalpy ([3]; x2 = 0.2423): -0.0101 ± 0.000526 kcal/mol
excess molar enthalpy ([3]; x2 = 0.3076): -0.0158 ± 0.000621 kcal/mol
excess molar enthalpy ([3]; x2 = 0.3688): -0.0202 ± 0.000693 kcal/mol
excess molar enthalpy ([3]; x2 = 0.4325): -0.0254 ± 0.000765 kcal/mol
excess molar enthalpy ([3]; x2 = 0.4782): -0.0283 ± 0.000813 kcal/mol
excess molar enthalpy ([3]; x2 = 0.525): -0.0321 ± 0.00086 kcal/mol
excess molar enthalpy ([3]; x2 = 0.5779): -0.0341 ± 0.000908 kcal/mol
excess molar enthalpy ([3]; x2 = 0.6383): -0.0346 ± 0.000908 kcal/mol
excess molar enthalpy ([3]; x2 = 0.7034): -0.0313 ± 0.00086 kcal/mol
excess molar enthalpy ([3]; x2 = 0.7744): -0.0254 ± 0.000765 kcal/mol
excess molar enthalpy ([3]; x2 = 0.8524): -0.0179 ± 0.000645 kcal/mol
excess molar enthalpy ([3]; x2 = 0.9323): -0.00949 ± 0.000526 kcal/mol
mass density ([4]; x2 = 0.0651): 1052.45 ± 1.1 kg/m3
mass density ([4]; x2 = 0.1277): 1041.56 ± 1.1 kg/m3
mass density ([4]; x2 = 0.1889): 1030.69 ± 1.1 kg/m3
mass density ([4]; x2 = 0.2509): 1019.59 ± 1.1 kg/m3
mass density ([4]; x2 = 0.3119): 1008.53 ± 1.1 kg/m3
mass density ([4]; x2 = 0.3711): 997.66 ± 1 kg/m3
mass density ([4]; x2 = 0.4384): 985.13 ± 1 kg/m3
mass density ([4]; x2 = 0.4971): 974.07 ± 1 kg/m3
mass density ([4]; x2 = 0.5548): 963.05 ± 1 kg/m3
mass density ([4]; x2 = 0.6131): 951.77 ± 1 kg/m3
mass density ([4]; x2 = 0.67): 940.63 ± 1 kg/m3
mass density ([4]; x2 = 0.7263): 929.48 ± 1 kg/m3
mass density ([4]; x2 = 0.7824): 918.28 ± 1 kg/m3
mass density ([4]; x2 = 0.8369): 907.25 ± 1 kg/m3
mass density ([4]; x2 = 0.8922): 895.96 ± 1 kg/m3
mass density ([4]; x2 = 0.9457): 884.85 ± 1 kg/m3

ClCCCCCCl [1,5-dichloropentane]
refractive index [1]: 1.454 ± 0.0008
mass density [2]: 1095.27 ± 0.66 kg/m3

ClCCCl [1,2-dichloroethane]
refractive index [1]: 1.442 ± 0.0007
mass density [2]: 1245.65 ± 0.46 kg/m3

ClCCCCCl [1,4-dichlorobutane] + CCCC(=O)OCC
excess molar enthalpy ([3]; x2 = 0.0516): -0.00502 ± 0.000454 kcal/mol
excess molar enthalpy ([3]; x2 = 0.1108): -0.0127 ± 0.000574 kcal/mol
excess molar enthalpy ([3]; x2 = 0.172): -0.0208 ± 0.000693 kcal/mol
excess molar enthalpy ([3]; x2 = 0.2328): -0.0297 ± 0.000837 kcal/mol
excess molar enthalpy ([3]; x2 = 0.2891): -0.0397 ± 0.00098 kcal/mol
excess molar enthalpy ([3]; x2 = 0.3455): -0.0467 ± 0.0011 kcal/mol
excess molar enthalpy ([3]; x2 = 0.3976): -0.053 ± 0.0012 kcal/mol
excess molar enthalpy ([3]; x2 = 0.4477): -0.0578 ± 0.00127 kcal/mol
excess molar enthalpy ([3]; x2 = 0.4757): -0.0598 ± 0.00129 kcal/mol
excess molar enthalpy ([3]; x2 = 0.5265): -0.0616 ± 0.00131 kcal/mol
excess molar enthalpy ([3]; x2 = 0.5821): -0.0614 ± 0.00131 kcal/mol
excess molar enthalpy ([3]; x2 = 0.6443): -0.0597 ± 0.00129 kcal/mol
excess molar enthalpy ([3]; x2 = 0.7111): -0.0554 ± 0.00122 kcal/mol
excess molar enthalpy ([3]; x2 = 0.7821): -0.0468 ± 0.0011 kcal/mol
excess molar enthalpy ([3]; x2 = 0.8567): -0.0343 ± 0.000908 kcal/mol
excess molar enthalpy ([3]; x2 = 0.9323): -0.0189 ± 0.000669 kcal/mol
mass density ([4]; x2 = 0.0516): 1117.97 ± 0.75 kg/m3
mass density ([4]; x2 = 0.1009): 1103.15 ± 0.75 kg/m3
mass density ([4]; x2 = 0.1531): 1087.78 ± 0.75 kg/m3
mass density ([4]; x2 = 0.2042): 1072.99 ± 0.75 kg/m3
mass density ([4]; x2 = 0.2583): 1057.63 ± 0.75 kg/m3
mass density ([4]; x2 = 0.3128): 1042.49 ± 0.75 kg/m3
mass density ([4]; x2 = 0.3701): 1026.87 ± 0.76 kg/m3
mass density ([4]; x2 = 0.4267): 1011.74 ± 0.76 kg/m3
mass density ([4]; x2 = 0.5437): 981.4 ± 0.8 kg/m3
mass density ([4]; x2 = 0.6058): 965.8 ± 0.83 kg/m3
mass density ([4]; x2 = 0.6681): 950.44 ± 0.86 kg/m3
mass density ([4]; x2 = 0.7293): 935.66 ± 0.89 kg/m3
mass density ([4]; x2 = 0.8601): 905.05 ± 0.95 kg/m3
mass density ([4]; x2 = 0.9259): 890.1 ± 0.98 kg/m3

ClCCCCCCCl [1,6-dichlorohexane] + CCCCC(=O)OCC
excess molar enthalpy ([3]; x2 = 0.0607): -0.00433 ± 0.00043 kcal/mol
excess molar enthalpy ([3]; x2 = 0.127): -0.00896 ± 0.000502 kcal/mol
excess molar enthalpy ([3]; x2 = 0.1968): -0.0146 ± 0.000598 kcal/mol
excess molar enthalpy ([3]; x2 = 0.264): -0.0205 ± 0.000693 kcal/mol
excess molar enthalpy ([3]; x2 = 0.3289): -0.0265 ± 0.000789 kcal/mol
excess molar enthalpy ([3]; x2 = 0.389): -0.0331 ± 0.000884 kcal/mol
excess molar enthalpy ([3]; x2 = 0.4445): -0.0397 ± 0.00098 kcal/mol
excess molar enthalpy ([3]; x2 = 0.4953): -0.0439 ± 0.00105 kcal/mol
excess molar enthalpy ([3]; x2 = 0.5409): -0.0448 ± 0.00108 kcal/mol
excess molar enthalpy ([3]; x2 = 0.5672): -0.045 ± 0.00108 kcal/mol
excess molar enthalpy ([3]; x2 = 0.5813): -0.0449 ± 0.00108 kcal/mol
excess molar enthalpy ([3]; x2 = 0.6117): -0.0433 ± 0.00105 kcal/mol
excess molar enthalpy ([3]; x2 = 0.6723): -0.0395 ± 0.00098 kcal/mol
excess molar enthalpy ([3]; x2 = 0.7364): -0.0342 ± 0.000908 kcal/mol
excess molar enthalpy ([3]; x2 = 0.8027): -0.0278 ± 0.000813 kcal/mol
excess molar enthalpy ([3]; x2 = 0.8717): -0.0198 ± 0.000669 kcal/mol
excess molar enthalpy ([3]; x2 = 0.9373): -0.0107 ± 0.00055 kcal/mol
mass density ([4]; x2 = 0.0538): 1053.1 ± 1.1 kg/m3
mass density ([4]; x2 = 0.1126): 1041.51 ± 1 kg/m3
mass density ([4]; x2 = 0.1693): 1030.36 ± 1 kg/m3
mass density ([4]; x2 = 0.2307): 1018.34 ± 0.95 kg/m3
mass density ([4]; x2 = 0.287): 1007.32 ± 0.9 kg/m3
mass density ([4]; x2 = 0.3464): 995.69 ± 0.86 kg/m3
mass density ([4]; x2 = 0.5231): 961.26 ± 0.77 kg/m3
mass density ([4]; x2 = 0.5825): 949.74 ± 0.75 kg/m3
mass density ([4]; x2 = 0.701): 926.81 ± 0.71 kg/m3
mass density ([4]; x2 = 0.7586): 915.69 ± 0.69 kg/m3
mass density ([4]; x2 = 0.8777): 892.8 ± 0.67 kg/m3
mass density ([4]; x2 = 0.94): 880.88 ± 0.66 kg/m3

ClCCCCCCl [1,5-dichloropentane] + CCCC(=O)OCC
excess molar enthalpy ([3]; x2 = 0.0571): -0.00196 ± 0.000406 kcal/mol
excess molar enthalpy ([3]; x2 = 0.1213): -0.00643 ± 0.000478 kcal/mol
excess molar enthalpy ([3]; x2 = 0.1884): -0.012 ± 0.00055 kcal/mol
excess molar enthalpy ([3]; x2 = 0.2532): -0.0176 ± 0.000645 kcal/mol
excess molar enthalpy ([3]; x2 = 0.3155): -0.0235 ± 0.000741 kcal/mol
excess molar enthalpy ([3]; x2 = 0.3746): -0.0297 ± 0.000837 kcal/mol
excess molar enthalpy ([3]; x2 = 0.4289): -0.0361 ± 0.000932 kcal/mol
excess molar enthalpy ([3]; x2 = 0.478): -0.0416 ± 0.001 kcal/mol
excess molar enthalpy ([3]; x2 = 0.5235): -0.0442 ± 0.00105 kcal/mol
excess molar enthalpy ([3]; x2 = 0.5576): -0.0456 ± 0.00108 kcal/mol
excess molar enthalpy ([3]; x2 = 0.5639): -0.0459 ± 0.00108 kcal/mol
excess molar enthalpy ([3]; x2 = 0.6129): -0.0461 ± 0.00108 kcal/mol
excess molar enthalpy ([3]; x2 = 0.6726): -0.0449 ± 0.00108 kcal/mol
excess molar enthalpy ([3]; x2 = 0.736): -0.0402 ± 0.001 kcal/mol
excess molar enthalpy ([3]; x2 = 0.8047): -0.0329 ± 0.000884 kcal/mol
excess molar enthalpy ([3]; x2 = 0.8728): -0.0236 ± 0.000741 kcal/mol
excess molar enthalpy ([3]; x2 = 0.9406): -0.0114 ± 0.00055 kcal/mol
mass density ([4]; x2 = 0.0569): 1082.35 ± 0.69 kg/m3
mass density ([4]; x2 = 0.1136): 1069.48 ± 0.7 kg/m3
mass density ([4]; x2 = 0.171): 1056.53 ± 0.7 kg/m3
mass density ([4]; x2 = 0.2286): 1043.61 ± 0.71 kg/m3
mass density ([4]; x2 = 0.2917): 1029.5 ± 0.72 kg/m3
mass density ([4]; x2 = 0.3489): 1016.71 ± 0.73 kg/m3
mass density ([4]; x2 = 0.4084): 1003.45 ± 0.74 kg/m3
mass density ([4]; x2 = 0.4653): 990.76 ± 0.77 kg/m3
mass density ([4]; x2 = 0.5243): 977.72 ± 0.79 kg/m3
mass density ([4]; x2 = 0.5825): 964.82 ± 0.82 kg/m3
mass density ([4]; x2 = 0.6411): 951.9 ± 0.85 kg/m3
mass density ([4]; x2 = 0.7595): 925.89 ± 0.9 kg/m3
mass density ([4]; x2 = 0.8188): 912.92 ± 0.93 kg/m3
mass density ([4]; x2 = 0.8799): 899.6 ± 0.96 kg/m3
mass density ([4]; x2 = 0.9403): 886.46 ± 0.99 kg/m3

ClCCCCl [1,3-dichloropropane]
refractive index [1]: 1.4455 ± 0.0008
mass density [2]: 1178.34 ± 0.8 kg/m3

CCCCC(=O)OCC [ethyl pentanoate]
refractive index [1]: 1.398 ± 0.0008
mass density [2]: 869.42 ± 0.62 kg/m3

Reference: the NIST ThermoML archive (doi:10.1016/j.jct.2005.03.020)
